PubChem BioAssay (NCI)
Where “and” joins values, the source holds several entries; their conditions need not be identical. Identical values can stand only once.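 In this assay, cells in 96-well plates receive the compound at five concentrations for 48 hours. Endpoints are linearly interpolated between the surrounding concentrations. Abbreviation: GI50, concentration required for 50% inhibition of growth. TGI: concentration producing complete growth inhibition.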

Tests used:
Experiment in all cases: DTP human tumour cell line panel, 48 h
RPMI-8226 leukemia = tested on: RPMI-8226 leukemia
MDA-MB-231 breast = tested on: MDA-MB-231 breast
CAKI-1 renal = tested on: CAKI-1 renal
SF-295 CNS = tested on: SF-295 CNS
SF-268 CNS = tested on: SF-268 CNS
SNB-19 CNS = tested on: SNB-19 CNS
MALME-3M melanoma = tested on: MALME-3M melanoma
A498 renal = tested on: A498 renal
786-0 renal = tested on: 786-0 renal
UACC-257 melanoma = tested on: UACC-257 melanoma

| SMILES | TGI (RPMI-8226 leukemia) | TGI (MDA-MB-231 breast) [µM] | TGI (CAKI-1 renal) | TGI (SF-295 CNS) | TGI (SF-268 CNS) | TGI (SNB-19 CNS) | TGI (MALME-3M melanoma) | TGI (A498 renal) | TGI (786-0 renal) [µM] | TGI (UACC-257 melanoma) [µM] | GI50 (RPMI-8226 leukemia) [µM] | GI50 (MDA-MB-231 breast) [µM] | GI50 (CAKI-1 renal) [µM] | GI50 (SF-295 CNS) | GI50 (SF-268 CNS) [µM] | GI50 (SNB-19 CNS) [µM] | GI50 (MALME-3M melanoma) [µM] | GI50 (A498 renal) [µM] | GI50 (786-0 renal) [µM] | GI50 (UACC-257 melanoma) [µM] |
| --- | --- | --- | --- | --- | --- | --- | --- | --- | --- | --- | --- | --- | --- | --- | --- | --- | --- | --- | --- | --- |
| O=C(O)C(=Cc1ccnc2ccccc12)C(=O)O | > 100 µM | > 100 | > 100 µM | > 100 µM | > 100 µM | > 100 µM | > 100 µM | > 100 µM | > 100 | > 100 | – | – | – | – | – | – | – | – | – | – |
| O=Cc1c(-c2cc(O)ccc2O)nc2sccn12 | 8.09 µM | 31.4 | 4.09 µM | 74.6 µM | 38.3 µM | > 100 µM | 25 µM | 78.9 µM | 15.9 | 95.8 | 1.76 | 12 | 0.958 | 25 µM | 3.83 | 42.6 | 10.9 | 29.5 | 3.83 | 29.9 |
| C[C@]12CCC3[C@@H](C[C@@H]4SC(Nc5ccccc5)=N[C@@]45CC(=O)CC[C@]35C)[C@@H]1CCC2=O (stereo not given in full) | 7.44 µM | > 100 | 30.2 µM | > 100 µM | 70 µM | > 100 µM | > 100 µM | > 100 µM | 13.1 | 94.5 | 2.73 | 13.4 | 13 | 8.98 µM | 5.95 | 12.9 | 21.2 | 28.8 | 3.02 | 23.8 |
| COc1ccc(/C=C/C(=O)c2cc3c(N)c(C(=O)Nc4ccccc4Cl)sc3nc2C)cc1 | > 50 µM | 20.3 | > 50 µM | > 50 µM | 27.9 µM | 23.1 µM | 9.21 µM | 4.51 µM | 2.18 | 13.5 | 5.72 | 2.22 | 7.51 | 3 µM | 3.39 | 3.8 | 0.736 | 0.866 | 0.839 | 1.19 |
| Cc1c(N=Nc2ccc([N+](=O)[O-])cc2)nc2scc(-c3ccccc3)n12 | > 100 µM | > 100 | > 100 µM | > 100 µM | > 100 µM | > 100 µM | > 100 µM | > 100 µM | > 100 | > 100 | – | – | – | – | – | – | – | – | – | – |
| OCc1cn(Cc2cccc(Cl)c2)c2ccccc12 | 20 µM | 31.7 | 1.87 µM | 14.5 µM | 38.1 µM | > 96.5 µM | 30.6 µM | 0.0305 µM | 28.1 | 5.61 | 0.632 | 8.37 | – | 0.145 µM | 14 | 22.5 | 12.3 | 0.0142 | 5.15 | 0.823 |
| COc1c(O)c2c(c3cc(C(=O)N4CCc5c4c(O)c(OC)c4[nH]c(C(=O)N6CC7CC78C6=CC(=O)c6[nH]cc(C)c68)cc54)[nH]c13)CCN2C(N)=O (stereo not given) | 313 nM and 11.9 µM and 0.159 µg/mL | > 100 | 5.31 nM and > 100 µM and 0.00582 µg/mL | 4.8 nM and 0.00618 µg/mL | 47.4 nM and > 100 µM and 0.00521 µg/mL | 76.8 nM and 3.69 µM and 0.185 µg/mL | 5.23 nM and 1.02 µM and 0.00419 µg/mL | 6.94 nM and 247 nM and 0.0354 µg/mL | – | – | – | – | – | 1.74 ng/mL | – | – | – | – | 0.0293 | 1.34 |
